Assay results as given in patent US7943629B2, “Sulphimides as protein kinase inhibitors” (Bayer Schering Pharma AG, priority 2006, dated 2011).

Legend:
Aurora-C = target: T1, Aurora-C (Homo sapiens, UniProt Q9UQB9); assay: Aurora-C kinase assay; type: biochemical; conditions: 3 μM ATP, 22° C., 90 min
T1 construct: made in house; host or cells: transiently transfected HEK293 cells
T1 sequence (Q9UQB9 1-309): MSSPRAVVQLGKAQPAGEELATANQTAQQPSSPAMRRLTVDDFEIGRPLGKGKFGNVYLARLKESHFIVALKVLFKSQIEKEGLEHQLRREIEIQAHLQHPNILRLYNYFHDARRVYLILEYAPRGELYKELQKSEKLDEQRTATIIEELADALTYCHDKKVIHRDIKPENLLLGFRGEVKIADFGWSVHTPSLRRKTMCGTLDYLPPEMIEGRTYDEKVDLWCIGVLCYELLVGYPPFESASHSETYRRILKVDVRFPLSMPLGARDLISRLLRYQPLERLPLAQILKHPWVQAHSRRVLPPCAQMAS
Description: Recombinant Aurora-C protein was expressed in transiently transfected HEK293 cells and then purified. The kinase substrate used was the biotinylated peptide having the amino acid sequence biotin-FMRLRRLSTKYRT, which was purchased from Jerini AG in Berlin.
Aurora-C [5 nM in the test mixture, test volume 5 μl] was incubated in the presence of various concentrations of test substances (0 μM and 10 measurement points within the range 0.001-20 μM in duplicate) in assay buffer [25 mM HEPES pH 7.4, 0.5 mM MnCl2, 0.1 mM Na ortho-vanadate, 2.0 mM dithiothreitol, 0.05% bovine serum albumin (BSA), 0.01% Triton X-100, 3 μM adenosine trisphosphate (ATP), 0.67 nCi/μl gamma-^33P-ATP, 2.0 μM substrate peptide biotin-FMRLRRLSTKYRT, 1.0% dimethyl sulphoxide] at 22° C. for 90 min. The reaction was stopped by adding 12.5 μl of an EDTA/detection solution [16 mM EDTA, 40 mM ATP, 0.08% Triton X-100, 4 mg/ml PVT streptavidin SPA beads (from Amersham)]. After incubation for 10 minutes, the SPA beads were pelleted by centrifugation at 1000×G for 10 minutes. Measurement took place in a PerkinElmer Topcount scintillation counter. The measured data were normalized to 0% inhibition (enzyme reaction without inhibitor) and 100% inhibition (enzyme reaction in the presence of 0.1 μM staurosporine (from Sigma)). The IC50 values were determined by means of a 4-parameter fit using the company's own software.

CDK1/CycB = target: T2, CDK1/CycB (Homo sapiens, UniProt P06493); assay: CDK1/CycB kinase assay; type: biochemical; conditions: 0.5 μM ATP, histone IIIS, 22° C., 10 min
T2 construct: GST; purchased ProQinase GmbH, Freiburg; host or cells: baculovirus-infected insect cells (Sf9)
Description: (§1) Recombinant CDK1- and CycB-GST fusion proteins, purified from baculovirus-infected insect cells (Sf9), were purchased from ProQinase GmbH, Freiburg. The histone IIIS used as kinase substrate can be purchased from Sigma. CDK1/CycB (200 ng/measurement point) was incubated in the presence of various concentrations of test substances (0 μM, and within the range 0.01-100 μM) in assay buffer [50 mM Tris/HCl pH 8.0, 10 mM MgCl2, 0.1 mM Na ortho-vanadate, 1.0 mM dithiothreitol, 0.5 μM ATP, 10 μg/measurement point histone IIIS, 0.2 μCi/measurement point ^33P-gamma-ATP, 0.05% NP40, 1.25% dimethyl sulphoxide] at 22° C. for 10 min. The reaction was stopped by adding EDTA solution (250 mM, pH 8.0, 15 μl/measurement point).
15 μl of each reaction mixture were loaded onto P30 filter strips (from Wallac), and non-incorporated ^33P-ATP was removed by washing the filter strips three times in 0.5% strength phosphoric acid for 10 min each time. After the filter strips had been dried at 70° C. for 1 hour, the filter strips were covered with scintillator strips (MeltiLex™ A, from Wallac) and baked at 90° C. for 1 hour. The amount of incorporated ^33P (substrate phosphorylation) was determined by scintillation measurement in a gamma radiation counter (Wallac).

CDK2/CycE = target: T3, CDK2/CycE (Homo sapiens, UniProt P24941); assay: CDK2/CycE kinase assay; type: biochemical; conditions: 0.5 μM ATP, histone IIIS, 22° C., 10 min
T3 construct: GST; purchased ProQinase GmbH, Freiburg; host or cells: baculovirus-infected insect cells (Sf9)
Description: Recombinant CDK2- and CycE-GST fusion proteins, purified from baculovirus-infected insect cells (Sf9), were purchased from ProQinase GmbH, Freiburg. The histone IIIS used as kinase substrate was purchased from Sigma.
as §1, with “CDK2/CycE (50” for “Recombinant CDK1- and CycB-GST fusion proteins, purified from baculovirus-infected insect cells (Sf9), were purchased from ProQinase GmbH, Freiburg. The histone IIIS used as kinase substrate can be purchased from Sigma. CDK1/CycB (200”
15 μl of each reaction mixture were loaded onto P30 filter strips (from Wallac), and non-incorporated ^33P-ATP was removed by washing the filter strips three times in 0.5% strength phosphoric acid for 10 min each time.
After the filter strips had been dried at 70° C. for 1 hour, the filter strips were covered with scintillator strips (MeltiLex™ A, from Wallac) and baked at 90° C. for 1 hour. The amount of incorporated ^33P (substrate phosphorylation) was determined by scintillation measurement in a gamma radiation counter (Wallac).

KDR (VEGFR2) = target: T4, KDR (VEGFR2) (Homo sapiens, UniProt P35968); assay: KDR kinase assay; type: biochemical; conditions: 10 μM ATP, 22° C., 45 min, HTRF
T4 construct: made in house; host or cells: E. coli
Description: Recombinant KDR protein was expressed in E. coli and then purified. The kinase substrate used was the biotinylated peptide having the amino acid sequence biotin-DFGLARDMYDKEYYSVG, which was purchased from Biosynthan. KDR [test volume 5 μl] was incubated in the presence of various concentrations of test substances (0 μM, and 10 measurement points within the range 0.001-20 μM in duplicate) in assay buffer [50 mM HEPES pH 7.0, 25.0 mM MgCl2, […], 0.1 mM Na ortho-vanadate, 1.0 mM dithiothreitol, 0.001% NP40, 10 μM ATP, 0.03 μM substrate peptide […], 1.0% dimethyl sulphoxide] at 22° C. for 45 min. The reaction was stopped by adding 5 μl of an EDTA/detection solution [50 mM HEPES pH 7.5, 125 mM EDTA, 0.2% BSA, 0.1 μM streptavidin-XLent (from CisBio), 2 nM PT66-Eu (from PerkinElmer)]. The fluorescence emission at 620 nm and 665 nm after excitation with light of the wavelength 350 nm was measured in a Rubystar HTRF instrument from BMG Labsystems.
The measured data (ratio of emission 665 divided by emission 620 multiplied by 10 000) were normalized to 0% inhibition (enzyme reaction without inhibitor) and 100% inhibition (all assay components apart from enzyme). The IC50 values were determined by means of a 4-parameter fit using the company's own software.

MCF7 breast tumour cells = assay: MCF7 proliferation assay; type: cell-based, human; conditions: Homo sapiens, MCF7, 96 h; 4 days incubation, crystal violet staining
Description: Cultivated human MCF7 breast tumour cells (ATCC HTB-22) were plated out in a density of 5000 cells/measurement point in 200 μl of growth medium (RPMI1640, 10% foetal calf serum, 2 mU/mL insulin, 0.1 nM oestradiol) in a 96-well multititre plate. After 24 hours, the cells from a plate (zero plate) were stained with crystal violet (see below), while the medium in the other plates was replaced by fresh culture medium (200 μl) to which the test substances had been added in various concentrations (0 μM, and in the range 0.1-30 μM; the final concentration of the solvent dimethyl sulphoxide was 0.5%). The cells were incubated in the presence of the test substances for 4 days. The cell proliferation was determined by staining the cells with crystal violet: the cells were fixed by adding 20 μl/measurement point of an 11% strength glutaraldehyde solution at room temperature for 15 min. After the fixed cells had been washed three times with water, the plates were dried at room temperature. The cells were stained by adding 100 μl/measurement point of a 0.1% strength crystal violet solution (pH adjusted to pH 3 by adding acetic acid). After the stained cells had been washed three times with water, the plates were dried at room temperature. The dye was dissolved by adding 100 μl/measurement point of a 10% strength acetic acid solution, and the extinction was determined by photometry at a wavelength of 595 nm. The percentage change in cell growth was calculated by normalizing the measurements to the extinctions of the zero point plate (=0%) and the extinction of the untreated (0 μM) cells (=100%). The IC50 values were determined by means of a 4-parameter fit using the company's own software.

T2 sequence (P06493 whole entry): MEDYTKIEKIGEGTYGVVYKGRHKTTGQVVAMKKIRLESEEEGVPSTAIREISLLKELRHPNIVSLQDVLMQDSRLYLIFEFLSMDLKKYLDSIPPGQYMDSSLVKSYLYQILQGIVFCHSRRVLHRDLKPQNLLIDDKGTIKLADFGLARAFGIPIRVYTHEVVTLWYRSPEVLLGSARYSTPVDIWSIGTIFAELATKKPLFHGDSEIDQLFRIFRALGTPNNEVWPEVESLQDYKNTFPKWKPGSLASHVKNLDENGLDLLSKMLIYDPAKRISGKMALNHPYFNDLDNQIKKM
T2 sequence (P14635 whole entry partner): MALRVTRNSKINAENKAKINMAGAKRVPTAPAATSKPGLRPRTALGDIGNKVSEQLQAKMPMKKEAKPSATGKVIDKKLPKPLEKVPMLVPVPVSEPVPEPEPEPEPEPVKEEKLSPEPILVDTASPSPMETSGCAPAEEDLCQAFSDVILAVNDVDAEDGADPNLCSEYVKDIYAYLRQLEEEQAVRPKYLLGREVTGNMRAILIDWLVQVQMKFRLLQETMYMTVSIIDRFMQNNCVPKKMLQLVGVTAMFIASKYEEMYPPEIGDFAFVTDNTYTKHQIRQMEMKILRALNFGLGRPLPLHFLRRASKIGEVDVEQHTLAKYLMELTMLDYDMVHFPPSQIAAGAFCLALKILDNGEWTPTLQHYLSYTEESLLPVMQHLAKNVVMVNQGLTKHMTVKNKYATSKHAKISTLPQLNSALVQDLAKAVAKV
T4 sequence (P35968 20-1356, species assumed): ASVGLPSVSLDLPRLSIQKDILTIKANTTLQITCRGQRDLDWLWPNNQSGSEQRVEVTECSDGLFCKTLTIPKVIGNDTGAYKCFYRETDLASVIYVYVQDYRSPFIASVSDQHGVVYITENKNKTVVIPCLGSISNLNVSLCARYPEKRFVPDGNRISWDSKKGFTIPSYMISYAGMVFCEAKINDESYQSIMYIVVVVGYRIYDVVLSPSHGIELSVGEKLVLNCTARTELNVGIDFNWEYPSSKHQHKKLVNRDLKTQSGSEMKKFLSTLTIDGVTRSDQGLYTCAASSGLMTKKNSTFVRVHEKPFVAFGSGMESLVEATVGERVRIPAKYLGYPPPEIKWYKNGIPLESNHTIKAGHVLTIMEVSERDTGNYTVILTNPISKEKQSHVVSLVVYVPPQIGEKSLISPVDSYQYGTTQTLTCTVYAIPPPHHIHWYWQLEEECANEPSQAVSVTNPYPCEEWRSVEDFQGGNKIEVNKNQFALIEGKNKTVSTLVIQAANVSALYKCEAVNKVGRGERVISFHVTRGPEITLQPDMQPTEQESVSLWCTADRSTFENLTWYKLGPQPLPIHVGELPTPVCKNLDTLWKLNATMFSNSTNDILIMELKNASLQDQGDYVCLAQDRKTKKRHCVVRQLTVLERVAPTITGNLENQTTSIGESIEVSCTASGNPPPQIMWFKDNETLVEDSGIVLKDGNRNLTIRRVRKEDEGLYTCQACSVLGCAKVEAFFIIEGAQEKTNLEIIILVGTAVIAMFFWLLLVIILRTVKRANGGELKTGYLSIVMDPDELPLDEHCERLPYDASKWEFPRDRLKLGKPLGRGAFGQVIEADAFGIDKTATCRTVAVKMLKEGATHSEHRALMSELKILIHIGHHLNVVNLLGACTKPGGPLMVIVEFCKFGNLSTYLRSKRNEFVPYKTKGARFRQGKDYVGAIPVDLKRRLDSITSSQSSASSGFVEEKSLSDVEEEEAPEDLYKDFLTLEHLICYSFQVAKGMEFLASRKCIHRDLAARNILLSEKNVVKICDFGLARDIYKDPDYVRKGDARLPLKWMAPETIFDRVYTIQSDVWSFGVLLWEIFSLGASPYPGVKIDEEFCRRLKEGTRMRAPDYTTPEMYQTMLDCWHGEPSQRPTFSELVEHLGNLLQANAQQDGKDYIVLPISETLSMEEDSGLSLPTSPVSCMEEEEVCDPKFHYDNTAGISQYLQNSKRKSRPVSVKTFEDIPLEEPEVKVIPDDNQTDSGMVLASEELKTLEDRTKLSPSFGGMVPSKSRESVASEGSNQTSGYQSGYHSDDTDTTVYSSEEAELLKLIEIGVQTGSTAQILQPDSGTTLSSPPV

Compound	IC50 (Aurora-C) [nM]	IC50 (CDK1/CycB) [nM]	IC50 (CDK2/CycE) [nM]	IC50 (KDR (VEGFR2)) [nM]	IC50 (MCF7 breast tumour cells) [nM]
C[C@@H](Nc1nc(Nc2ccc(S(C)=NS(C)(=O)=O)cc2)ncc1Br)C(C)(C)O (mixture of isomers) [Example 18, (RS)—S-{4-[(5-Bromo-4-{[(R)-2-hydroxy-1,2-dimethylpropyl]amino}pyrimidin-2-yl)amino]phenyl}-N-mesyl-S-methylsulphimide]	400	50	6	35	170
CC(=O)Nc1nnc(S(=O)(=O)N=S(C)c2ccc(Nc3ncc(Br)c(N[C@H](C)C(C)(C)O)n3)cc2)s1 (mixture of isomers) [Example 19, (RS)—N-{[5-(Acetylamino)-1,3,4-thiadiazol-2-yl]sulphonyl}-S-{4-[(5-bromo-4-{[(R)-2-hydroxy-1,2-dimethylpropyl]amino}pyrimidin-2-yl)amino]phenyl}-S-methyl-sulphimide]	1100	98	25	320	1800
CCS(=O)(=O)N=S(C)c1ccc(Nc2ncc(Br)c(N[C@H](C)C(C)(C)O)n2)cc1 (mixture of isomers) [Example 20, (RS)—S-{4-[(5-Bromo-4-{[(R)-2-hydroxy-1,2-dimethylpropyl]amino}pyrimidin-2-yl)amino]phenyl}-N-(ethylsulphonyl)-S-methylsulphimide]	250	31	10	35	350
CCCS(=O)(=O)N=S(C)c1ccc(Nc2ncc(Br)c(N[C@H](C)C(C)(C)O)n2)cc1 (mixture of isomers) [Example 21, (RS)—S-{4-[(5-Bromo-4-{[(R)-2-hydroxy-1,2-dimethylpropyl]amino}pyrimidin-2-yl)amino]phenyl}-S-methyl-N-(propylsulphonyl)sulphimide]	390	36	12	49	310
C[C@@H](Nc1nc(Nc2ccc(S(C)=NS(=O)(=O)C(C)(C)C)cc2)ncc1Br)C(C)(C)O (mixture of isomers) [Example 22, (RS)—S-{4-[(5-Bromo-4-{[(R)-2-hydroxy-1,2-dimethylpropyl]amino}pyrimidin-2-yl)amino]phenyl}-N-(tert-butylsulphonyl)-S-methylsulphimide]	390	46	22	44	330
Cc1ccc(S(=O)(=O)N=S(C)c2ccc(Nc3ncc(Br)c(NC(C)C)n3)cc2)cc1 (racemic) [Example 1, (RS)—S-(4-{[5-Bromo-4-(isopropylamino)pyrimidin-2-yl]amino}phenyl)-S-methyl-N-(tolylsulphonyl)sulphimide]	240	> 1000	900	37	2200
